Source: publication PMC3795738 (PLoS ONE, 2013)
Like-named read-outs stand apart in the source and are kept apart here.

Columns and labels:
[1] = molecular target: T1, CapB2 and CapA1Ct (GST-CapA1Ct) (Staphylococcus aureus, UniProt A8YPQ5+A8YPQ6); conditions: 10 µM ATP, 5 mM MgCl2, pH 7.5, 37°C; labelled compound; GST-CapA1Ct as activator
[2] = molecular target: T1, CapB2 and CapA1Ct (GST-CapA1Ct); conditions: 10 µM ATP, 5 mM MgCl2, pH 7.5, 37°C; labelled compound; GST-CapA1Ct(ΔN222) as activator
[3] = molecular target: T2, CapB1 (Met1 to Glu228), as it stands in the CapA1B1 chimera (Staphylococcus aureus, UniProt A8YPQ8 1-228); assay: crystal structure; conditions: both partners purified
T2 construct: also called Cap5B1; source: E. coli BL21(DE3), purified (IMAC, gel filtration) as part of the chimera CapA1B1
T2 sequence: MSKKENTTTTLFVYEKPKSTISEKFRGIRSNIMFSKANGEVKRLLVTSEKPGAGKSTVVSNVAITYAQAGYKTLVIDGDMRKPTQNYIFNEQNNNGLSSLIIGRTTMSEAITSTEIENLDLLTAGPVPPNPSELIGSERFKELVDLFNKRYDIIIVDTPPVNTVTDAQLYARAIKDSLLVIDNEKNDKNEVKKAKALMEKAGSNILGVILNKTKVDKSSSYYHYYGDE

`Nc1ncnc2c1ncn2[C@@H]1O[C@H](COP(=O)(O)OP(=O)(O)OP(=O)(O)O)[C@@H](O)[C@H]1O` [ATP] was tested, and the “autophosphorylation with [γ-32P]ATP, SDS-PAGE, autoradiography” value [1] was “CapB2 was incubated in the presence of radioactive ATP and different (wild type or mutated)” and the “autophosphorylation with [γ-32P]ATP, SDS-PAGE, autoradiography” value [2] was “the Asn222 deletion did not affect the CapA1 ability to trigger CapB2 autophosphorylation”.

B1: CapA1 C-terminal juxtamembrane fragment (Val194 to Asn222), as it stands in the CapA1B1 chimera (domain or fragment)
chain: VIFDKRIKDEEDVEKELGLPVLGSIQKFN
notes: also called Cap5A1; source: E. coli BL21(DE3), purified (IMAC, gel filtration) as part of the chimera CapA1B1
B1: binds [3].
